Data on 23 compounds can be found in ChEMBL document CHEMBL4257501, “Discovery of novel picolinamide-based derivatives as novel VEGFR-2 kinase inhibitors: synthesis, in vitro biological evaluation and molecular docking” (Medchemcomm, 2018).

For orientation: IC50 means the concentration at which inhibition is half-maximal.

The first assay relates to A549. Nature of the assay: Antiproliferative activity against VEGF-stimulated human A549 cells after 48 hrs by CCK8 assay. It is filed as functional, cell-based. As to conditions: A549, 48 h.
Consider `O=C(c1cc(Oc2ccc(/C=C/c3ccncc3)cc2)ccn1)N1CCCC1`, for which half-maximal inhibition (IC50) was put at 18.6 µM.
Same read-out and setting: then `CC(C)NC(=O)c1cc(Oc2ccc(/C=C/c3ccncc3)cc2)ccn1`, with 20.6 µM; and `O=C(NC1CC1)c1cc(Oc2ccc(/C=C/c3ccncc3)cc2)ccn1`, with 35.5 µM.
Still for that read-out and setting: as for `O=C(NC1CC1)c1cc(Oc2ccc(/C=C/c3ccccn3)cc2)ccn1`, the figure is 17.3 µM; as for `COc1ccc(CNC(=O)c2cc(Oc3ccc(/C=C/c4ccncc4)cc3)ccn2)cc1`, 19.3 µM; as for `O=C(NC1CCCCC1)c1cc(Oc2ccc(/C=C/c3ccncc3)cc2)ccn1`, 16.8 µM.
Still for that read-out and setting: then `O=C(Nc1ccccc1)c1cc(Oc2ccc(/C=C/c3ccccn3)cc2)ccn1`, with 19.1 µM; and `CNC(=O)c1cc(Oc2ccc(/C=C/c3ccncc3)cc2)ccn1`, with 13.2 µM.
`O=C(c1cc(Oc2ccc(/C=C/c3ccccn3)cc2)ccn1)N1CCCC1` yielded an IC50 of 15.6 µM.
Compound `O=C(NCc1ccccc1)c1cc(Oc2ccc(/C=C/c3ccccn3)cc2)ccn1` had an IC50 of 18.8 µM.
Still for that read-out and setting: then `O=C(Nc1ccccc1)c1cc(Oc2ccc(/C=C/c3ccncc3)cc2)ccn1`, with 79.7 µM; and `COc1ccc(NC(=O)c2cc(Oc3ccc(/C=C/c4ccccn4)cc3)ccn2)cc1`, with 20 µM; and `CNC(=O)c1cc(Oc2ccc(/C=C/c3ccccn3)cc2)ccn1`, with 17.4 µM.
On the same count and under the same terms, as for `O=C(NCc1ccc(F)cc1)c1cc(Oc2ccc(/C=C/c3ccncc3)cc2)ccn1`, the figure is 18.2 µM; as for `COc1ccc(NC(=O)c2cc(Oc3ccc(/C=C/c4ccncc4)cc3)ccn2)cc1`, 25.6 µM; as for `O=C(NC1CCCCC1)c1cc(Oc2ccc(/C=C/c3ccccn3)cc2)ccn1`, 12.5 µM.
`CC(C)NC(=O)c1cc(Oc2ccc(/C=C/c3ccccn3)cc2)ccn1`: the IC50 turned out to be 21.4 µM.
On the same count and under the same terms, as for `O=C(NCc1ccc(F)cc1)c1cc(Oc2ccc(/C=C/c3ccccn3)cc2)ccn1`, the figure is more than 100 µM; as for `O=C(Nc1ccc(Cl)cc1)c1cc(Oc2ccc(/C=C/c3ccncc3)cc2)ccn1`, 62.1 µM; as for `COc1ccc(CNC(=O)c2cc(Oc3ccc(/C=C/c4ccccn4)cc3)ccn2)cc1`, 63.6 µM.
Same read-out and setting: as for `O=C(Nc1ccc(Cl)cc1)c1cc(Oc2ccc(/C=C/c3ccccn3)cc2)ccn1`, the figure is 16.2 µM; as for `O=C(NCc1ccccc1)c1cc(Oc2ccc(/C=C/c3ccncc3)cc2)ccn1`, 17 µM; as for `CNC(=O)c1cc(Oc2ccc(NC(=O)Nc3ccc(Cl)c(C(F)(F)F)c3)cc2)ccn1` [SORAFENIB], 19.3 µM.

The next assay deals with HepG2. Nature of the assay: Antiproliferative activity against VEGF-stimulated human HepG2 cells after 48 hrs by CCK8 assay. It is filed as functional, cell-based. To be noted: HepG2, 48 h. (In general: Tetrazolium assays rely on reduction of a dye to a coloured formazan, in cell work by metabolically active cells.)
The compound `O=C(c1cc(Oc2ccc(/C=C/c3ccncc3)cc2)ccn1)N1CCCC1` showed an IC50 of 41.6 µM.
Same read-out and setting: as for `CC(C)NC(=O)c1cc(Oc2ccc(/C=C/c3ccncc3)cc2)ccn1`, the figure is 33.7 µM; as for `O=C(NC1CC1)c1cc(Oc2ccc(/C=C/c3ccncc3)cc2)ccn1`, 77.5 µM; as for `O=C(NC1CC1)c1cc(Oc2ccc(/C=C/c3ccccn3)cc2)ccn1`, 31 µM.
Regarding `COc1ccc(CNC(=O)c2cc(Oc3ccc(/C=C/c4ccncc4)cc3)ccn2)cc1`, the IC50 is more than 100 µM.
Same read-out and setting: as for `O=C(NC1CCCCC1)c1cc(Oc2ccc(/C=C/c3ccncc3)cc2)ccn1`, the figure is 22.4 µM.
The compound `O=C(Nc1ccccc1)c1cc(Oc2ccc(/C=C/c3ccccn3)cc2)ccn1` yielded an IC50 of 30.2 µM.
On to `CNC(=O)c1cc(Oc2ccc(/C=C/c3ccncc3)cc2)ccn1`, for which half-maximal inhibition (IC50) was put at 18.2 µM.
`O=C(c1cc(Oc2ccc(/C=C/c3ccccn3)cc2)ccn1)N1CCCC1` had an IC50 of 27 µM.
Take `O=C(NCc1ccccc1)c1cc(Oc2ccc(/C=C/c3ccccn3)cc2)ccn1`: the IC50 was found to be 27.9 µM.
Same read-out and setting: as for `O=C(Nc1ccccc1)c1cc(Oc2ccc(/C=C/c3ccncc3)cc2)ccn1`, the figure is more than 100 µM.
The compound `COc1ccc(NC(=O)c2cc(Oc3ccc(/C=C/c4ccccn4)cc3)ccn2)cc1` had an IC50 of 30 µM.
The same measure, in the same setting: then `CNC(=O)c1cc(Oc2ccc(/C=C/c3ccccn3)cc2)ccn1`, with 21.6 µM; and `O=C(NCc1ccc(F)cc1)c1cc(Oc2ccc(/C=C/c3ccncc3)cc2)ccn1`, with 37.2 µM; and `COc1ccc(NC(=O)c2cc(Oc3ccc(/C=C/c4ccncc4)cc3)ccn2)cc1`, with more than 100 µM.
Still for that read-out and setting: then `O=C(NC1CCCCC1)c1cc(Oc2ccc(/C=C/c3ccccn3)cc2)ccn1`, with 20.6 µM.
Same read-out and setting: as for `CC(C)NC(=O)c1cc(Oc2ccc(/C=C/c3ccccn3)cc2)ccn1`, the figure is more than 100 µM.
Turning to `O=C(NCc1ccc(F)cc1)c1cc(Oc2ccc(/C=C/c3ccccn3)cc2)ccn1`, the IC50 stood at 45.1 µM.
Still for that read-out and setting: as for `O=C(Nc1ccc(Cl)cc1)c1cc(Oc2ccc(/C=C/c3ccncc3)cc2)ccn1`, the figure is 56.2 µM.
On the same count and under the same terms, then `COc1ccc(CNC(=O)c2cc(Oc3ccc(/C=C/c4ccccn4)cc3)ccn2)cc1`, with 26 µM; and `O=C(Nc1ccc(Cl)cc1)c1cc(Oc2ccc(/C=C/c3ccccn3)cc2)ccn1`, with 31.3 µM; and `O=C(NCc1ccccc1)c1cc(Oc2ccc(/C=C/c3ccncc3)cc2)ccn1`, with 28.9 µM.
Same read-out and setting: as for `CNC(=O)c1cc(Oc2ccc(NC(=O)Nc3ccc(Cl)c(C(F)(F)F)c3)cc2)ccn1` [SORAFENIB], the figure is 29 µM.

Test system in another assay: not listed separately
Nature of the assay: Selectivity ratio of IC50 for VEGF-stimulated human HepG2 cells to IC50 for VEGF-stimulated human A549 cells. It counts as functional.
Settings: not given
Turning to `O=C(c1cc(Oc2ccc(/C=C/c3ccncc3)cc2)ccn1)N1CCCC1`, the “Ratio IC50” value was found to be 2.2.
Same read-out and setting: as for `CC(C)NC(=O)c1cc(Oc2ccc(/C=C/c3ccncc3)cc2)ccn1`, the figure is 1.6; as for `O=C(NC1CC1)c1cc(Oc2ccc(/C=C/c3ccncc3)cc2)ccn1`, 2.2.
Turning to `O=C(NC1CC1)c1cc(Oc2ccc(/C=C/c3ccccn3)cc2)ccn1`, the “Ratio IC50” value stood at 1.8.
On the same count and under the same terms, then `COc1ccc(CNC(=O)c2cc(Oc3ccc(/C=C/c4ccncc4)cc3)ccn2)cc1`, with more than 5.2; and `O=C(NC1CCCCC1)c1cc(Oc2ccc(/C=C/c3ccncc3)cc2)ccn1`, with 1.3.
For `O=C(Nc1ccccc1)c1cc(Oc2ccc(/C=C/c3ccccn3)cc2)ccn1`, the “Ratio IC50” value is on record as 1.6.
Same read-out and setting: as for `CNC(=O)c1cc(Oc2ccc(/C=C/c3ccncc3)cc2)ccn1`, the figure is 1.4.
The same measure, in the same setting: then `O=C(c1cc(Oc2ccc(/C=C/c3ccccn3)cc2)ccn1)N1CCCC1`, with 1.7; and `O=C(NCc1ccccc1)c1cc(Oc2ccc(/C=C/c3ccccn3)cc2)ccn1`, with 1.5.
On the same count and under the same terms, as for `O=C(Nc1ccccc1)c1cc(Oc2ccc(/C=C/c3ccncc3)cc2)ccn1`, the figure is more than 1.2; as for `COc1ccc(NC(=O)c2cc(Oc3ccc(/C=C/c4ccccn4)cc3)ccn2)cc1`, 1.5.
For the compound `CNC(=O)c1cc(Oc2ccc(/C=C/c3ccccn3)cc2)ccn1`, the “Ratio IC50” value is recorded as 1.2.
Same read-out and setting: as for `O=C(NCc1ccc(F)cc1)c1cc(Oc2ccc(/C=C/c3ccncc3)cc2)ccn1`, the figure is 2; as for `COc1ccc(NC(=O)c2cc(Oc3ccc(/C=C/c4ccncc4)cc3)ccn2)cc1`, more than 3.9; as for `O=C(NC1CCCCC1)c1cc(Oc2ccc(/C=C/c3ccccn3)cc2)ccn1`, 1.6.
On the same count and under the same terms, as for `CC(C)NC(=O)c1cc(Oc2ccc(/C=C/c3ccccn3)cc2)ccn1`, the figure is more than 4.7; as for `O=C(NCc1ccc(F)cc1)c1cc(Oc2ccc(/C=C/c3ccccn3)cc2)ccn1`, less than 0.5.
On the same count and under the same terms, then `O=C(Nc1ccc(Cl)cc1)c1cc(Oc2ccc(/C=C/c3ccncc3)cc2)ccn1`, with 0.9; and `COc1ccc(CNC(=O)c2cc(Oc3ccc(/C=C/c4ccccn4)cc3)ccn2)cc1`, with 0.4; and `O=C(Nc1ccc(Cl)cc1)c1cc(Oc2ccc(/C=C/c3ccccn3)cc2)ccn1`, with 1.9.
With `O=C(NCc1ccccc1)c1cc(Oc2ccc(/C=C/c3ccncc3)cc2)ccn1`, the “Ratio IC50” value is 1.7.

For a further assay, the target named is Vascular endothelial growth factor receptor 2 (Homo sapiens, UniProt P35968). Nature of the assay: biochemical. It is filed as cell-based, Sf9.
Sequence of Vascular endothelial growth factor receptor 2 (P35968 whole entry): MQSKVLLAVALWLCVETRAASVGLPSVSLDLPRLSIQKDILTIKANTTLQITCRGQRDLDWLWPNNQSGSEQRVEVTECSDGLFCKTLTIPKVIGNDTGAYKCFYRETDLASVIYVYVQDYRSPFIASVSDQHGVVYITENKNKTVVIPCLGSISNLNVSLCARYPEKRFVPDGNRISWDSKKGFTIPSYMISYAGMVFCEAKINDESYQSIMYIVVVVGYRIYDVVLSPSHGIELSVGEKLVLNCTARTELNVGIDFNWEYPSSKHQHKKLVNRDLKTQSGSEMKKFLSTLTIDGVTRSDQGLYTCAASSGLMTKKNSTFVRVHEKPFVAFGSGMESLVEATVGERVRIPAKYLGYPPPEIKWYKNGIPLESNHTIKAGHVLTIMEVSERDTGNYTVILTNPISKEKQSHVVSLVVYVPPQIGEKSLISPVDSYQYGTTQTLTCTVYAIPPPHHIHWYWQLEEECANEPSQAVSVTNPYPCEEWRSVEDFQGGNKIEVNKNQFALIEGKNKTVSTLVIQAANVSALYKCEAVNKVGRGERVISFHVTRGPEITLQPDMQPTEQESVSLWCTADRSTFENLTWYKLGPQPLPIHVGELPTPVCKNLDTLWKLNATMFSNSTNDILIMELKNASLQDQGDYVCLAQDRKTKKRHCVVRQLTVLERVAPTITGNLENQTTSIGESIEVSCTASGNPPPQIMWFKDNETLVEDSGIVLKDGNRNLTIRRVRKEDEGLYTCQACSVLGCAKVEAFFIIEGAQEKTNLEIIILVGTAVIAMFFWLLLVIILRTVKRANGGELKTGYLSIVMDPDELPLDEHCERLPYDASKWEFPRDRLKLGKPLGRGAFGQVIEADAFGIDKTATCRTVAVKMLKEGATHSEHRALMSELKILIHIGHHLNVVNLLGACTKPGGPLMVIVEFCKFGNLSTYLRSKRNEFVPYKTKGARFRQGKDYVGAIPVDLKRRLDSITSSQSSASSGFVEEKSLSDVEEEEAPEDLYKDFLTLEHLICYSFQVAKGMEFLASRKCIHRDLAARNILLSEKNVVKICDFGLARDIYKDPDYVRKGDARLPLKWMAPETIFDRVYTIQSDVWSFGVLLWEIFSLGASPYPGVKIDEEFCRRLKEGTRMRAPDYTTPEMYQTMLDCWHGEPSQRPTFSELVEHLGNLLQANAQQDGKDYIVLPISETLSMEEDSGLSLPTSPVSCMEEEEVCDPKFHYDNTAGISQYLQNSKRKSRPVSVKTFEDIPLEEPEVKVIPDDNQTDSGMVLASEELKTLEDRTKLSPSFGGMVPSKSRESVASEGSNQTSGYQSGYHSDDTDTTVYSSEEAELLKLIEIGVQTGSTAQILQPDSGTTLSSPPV
Settings: not given
For `O=C(NC1CCCCC1)c1cc(Oc2ccc(/C=C/c3ccncc3)cc2)ccn1`, the IC50 stood at 1.22 µM.
The same measure, in the same setting: then `CNC(=O)c1cc(Oc2ccc(/C=C/c3ccncc3)cc2)ccn1`, with 0.29 µM; and `CNC(=O)c1cc(Oc2ccc(/C=C/c3ccccn3)cc2)ccn1`, with 0.87 µM.
Compound `O=C(NC1CCCCC1)c1cc(Oc2ccc(/C=C/c3ccccn3)cc2)ccn1` had an IC50 of 0.53 µM.
